{
  "source": "patent US10407445B2",
  "about": "“Hepatitis C virus inhibitors” (ENANTA PHARMACEUTICALS, INC., priority 2013, dated 2019)",
  "assay_type_in_all_cases": "cell-based",
  "key": {"[1]": {"test_system": "GT1a replicon encoding NS5A mutation Y93H", "test": "Transient replication assay, GT1a replicon with NS5A mutation Y93H", "settings": "Hepatitis C virus, read-out: EC50 1a Y93H"}, "HCV GT 1b replicon": {"test_system": "HCV GT 1b replicon", "test": "HCV replicon assay, stable GT 1b replicon (Renilla luciferase)", "settings": "Hepatitis C virus, GT1B, 72 h", "procedure": "(§1) The activity of compounds was determined against HCV replicons representing genotypes (GT) 1a, 1b, 2a, and 3a. To generate stable Huh-7.5-based cell lines, HCV replicons were engineered to express the Renilla luciferase reporter (hRluc) fused to the neomycin phosphotransferase (Neo) gene. GT2a and GT3a HCV replicons were based on the JFH-1 subgenomic replicon (Kato et al. 2003 Gastroenterology, 125:1808-1817), in which the NS5A gene was replaced with that of strains J6 and S52 (GT2a and G3a, respectively). The activity of compounds against GT1a replicons encoding NS5A mutations (M28T, Q30R, L31M, Y93C, and Y93H) was also determined in a transient replication assay. The parental GT1a and GT2a replicons (pH/SG-Neo(L+I) and pSG-Neo-JFH1, respectively) were licensed from Apath LLC (Saint Louis, Mo.). The parental GT 1b replicon (pFKi389lucubineo_3_3′_ET) was licensed from ReBLikon GmbH (Germany). HCV replicons were constructed by standard molecular biology techniques described below. All replicon constructs were verified by restriction enzyme digestion and DNA sequencing.\nThe hRluc-Neo cassette was PCR amplified from pF9 cytomegalovirus (CMV) hRluc-Neo Flexi(R) (Promega) using Accuprime Super Mix II (Invitrogen) and the following primers, which introduce restriction sites: […]\nThe amplification product was subcloned into pCR2.1-TOPO (Invitrogen). The resulting plasmid was digested with AscI and NotI, and the excised hRluc-Neo fragment was ligated using the Roche Quick Ligation Kit (Roche) into pFKi389lucubineo_3_3′_ET digested with the same enzymes.\n(§2) Stable HCV replicon cell lines were grown in complete media (Dulbecco's modified Eagle medium [DMEM], 2 mM L-glutamine, 0.1 mM essential amino acids, 1 mM sodium pyruvate, 10% heat inactivated fetal bovine serum) with the addition 500 μg/ml […] (G418). Huh7-lunet cells were maintained in the same medium without the addition of G418. Cells were routinely passaged at a dilution of 1:4 two times a week. The assay medium for both luciferase reporter HCV replicon and cytotoxicity assays used phenol red-free DMEM and lacked G418. For each stable replicon assay, a sixteen point half-log dilution series of compound was stamped (0.5 ul compound per well) into three replica 384-well plates, to which cells were added directly (4000 cells/well). For the transient replication assay, Huh7-lunet cells in ice-cold phosphate buffered saline (PBS) were electroporated (BioRad electroporator; 950 uF, 270V) with 10 ug purified in vitro transcribed HCV replicon RNA, followed by resuspension in complete media and plating (8000 cells/well) into compound stamped 384-well plates. Luciferase activity of compound-treated cells was measured relative to DMSO-treated cells after 72 h incubation using RENILLA-GLO™ Luciferase Assay (Promega). Cytotoxicity (CC50) in the GT1b replicon cell line was analyzed using CELL TITER-GLO™ (Promega).\nThe compounds of the present invention can be effective against the HCV 1b genotype. It should also be understood that the compounds of the present invention can inhibit multiple genotypes of HCV. In one embodiment compound of the present invention are active against the 1a, 1b, 2a, 2b, 3a, 4a, and 5a genotypes. In another embodiment compound of the present invention are active against the HCV resistant mutants. […] EC50s are in pM against HCV GT 1a and GT 1b; and nM against GT 2a-J6, GT 3a and GT1a resistant variants (M28T, Q30R, L31V, Y93C and Y93H)."}, "HCV GT 1a replicon": {"test_system": "HCV GT 1a replicon", "test": "HCV replicon assay, stable GT 1a replicon (Renilla luciferase)", "settings": "Hepatitis C virus, GT1A; HCV GT 1a replicon, 72 h; read-out: EC50 1a", "procedure": "as §1\npH/SG-Neo(L+I) was modified to add the firefly luciferase reporter gene and additional adaptive mutations by replacing the pH/SG-Neo(L+I) NS3-NS5A coding region with the corresponding sequence of pH77-S, creating pH/SG-lucubineo-H77S as described (Borawski J et al. 2009, J Virol 83: 10058-10074). Subsequently, the firefly luciferase-Neo cassette was replaced with the hRluc-Neo cassette. To create a unique cloning site, the NotI restriction site in NS5B was removed using QuickChange II XL Site-Directed Mutagenesis Kit (Agilent) and the following primers: NotI KO Fwd 5′-CTCAAACTCACTCCAATAGCTGCCGCTGGCCGGCTGGAC-3′(G→T mutation removing NotI site underlined) (SEQ. ID No. 1) and NotI KO Rev 5′-GTCCAGCGGGCCAGCGGCAGCTATTGGAGTGAGTTTGAG-3′(C→A mutation removing NotI site underlined) (SEQ. ID No. 2). The resulting vector, pH/SG-lucubineo-H775-NotIKO, was sequenced to confirm the NS5B gene. The hRluc-Neo cassette was PCR amplified from pF9 cytomegalovirus (CMV) hRluc-Neo Flexi(R) (Promega) using Accuprime Super Mix II (Invitrogen) and the following primers, which introduce restriction sites: […]\nThe amplification product was subcloned into pCR2.1-TOPO (Invitrogen). The resulting plasmid was digested with AscI and NotI, and the excised hRluc-Neo fragment was ligated using the Promega Rapid Ligation Kit (Promega) into pH/SG-lucubineo-H775-NotIKO digested with the same enzymes.\nas §2, with “TITER-GLO™ (Promega). […]” for “TITER-GLO™ (Promega).”"}, "[2]": {"test_system": "GT1a replicon encoding NS5A mutation Q30R", "test": "Transient replication assay, GT1a replicon with NS5A mutation Q30R", "settings": "Hepatitis C virus, read-out: EC50 1a Q30R"}, "[3]": {"test_system": "GT1a replicon encoding NS5A mutation L31V", "test": "Transient replication assay, GT1a replicon with NS5A mutation L31V", "settings": "Hepatitis C virus, read-out: EC50 1a L31V"}, "[4]": {"test_system": "GT1a replicon encoding NS5A mutation Y93C", "test": "Transient replication assay, GT1a replicon with NS5A mutation Y93C", "settings": "Hepatitis C virus, read-out: EC50 1a Y93C"}, "[5]": {"test_system": "GT1a replicon encoding NS5A mutation M28T", "test": "Transient replication assay, GT1a replicon with NS5A mutation M28T", "settings": "Hepatitis C virus, read-out: EC50 1a M28T"}},
  "data": [
    {"smiles": "COC(=O)N[C@H](C(=O)N1[C@H](c2ncc(-c3ccc(-c4ccc(-c5cnc([C@@H]6C[C@@]7(CCCOC7)CN6C(=O)[C@@H](NC(=O)OC)C6C[C@@H](C)O[C@H](C)C6)[nH]5)cc4)cc3)[nH]2)C[C@@H]2CCC[C@@H]21)C(C)C", "note": "(some centres unmarked) [Compound 45]", "values": [
      {"measurement": "EC50", "setting": "[1]", "value": 8, "unit": "nM"},
      {"measurement": "EC50", "setting": "HCV GT 1b replicon", "value": 0.028, "unit": "nM"},
      {"measurement": "EC50", "setting": "HCV GT 1a replicon", "value": 0.023, "unit": "nM"},
      {"measurement": "EC50", "setting": "[2]", "value": 0.03, "unit": "nM"},
      {"measurement": "EC50", "setting": "[3]", "value": 0.06, "unit": "nM"},
      {"measurement": "EC50", "setting": "[4]", "value": 0.3, "unit": "nM"},
      {"measurement": "EC50", "setting": "[5]", "value": 0.04, "unit": "nM"}
    ]},
    {"smiles": "COC(=O)N[C@H](C(=O)N1[C@H](c2nc3ccc4cc(-c5ccc(-c6cnc([C@@H]7C[C@@]8(CCCOC8)CN7C(=O)[C@@H](NC(=O)OC)C7C[C@@H](C)O[C@H](C)C7)[nH]6)cc5)ccc4c3[nH]2)C[C@@H]2CCC[C@@H]21)C(C)C", "note": "(some centres unmarked) [Compound 43]", "values": [
      {"measurement": "EC50", "setting": "[1]", "value": 2, "unit": "nM"},
      {"measurement": "EC50", "setting": "HCV GT 1b replicon", "value": 0.023, "unit": "nM"},
      {"measurement": "EC50", "setting": "HCV GT 1a replicon", "value": 0.015, "unit": "nM"},
      {"measurement": "EC50", "setting": "[2]", "value": 0.03, "unit": "nM"},
      {"measurement": "EC50", "setting": "[3]", "value": 0.06, "unit": "nM"},
      {"measurement": "EC50", "setting": "[4]", "value": 0.04, "unit": "nM"},
      {"measurement": "EC50", "setting": "[5]", "value": 0.04, "unit": "nM"}
    ]}
  ]
}
